In patent publication US20030190325A1, “Novel peroxiredoxin defense system from mycobacterium tuberculosis” (priority 2002, published 2003):

B1: AhpD (protein encoded by the ahpD gene, Rv2429, of Mycobacterium tuberculosis) (enzyme)
chain: MSIEKLKAALPEYAKDIKLNLSSITRSSVLDQEQLWGTLLASAAATRNPQVLADIGAEATDHLSAAARHAALGAAAIMGMNNVFYRGRGFLEGRYDDLRPGLRMNIIANPGIPKANFELWSFAVSAINGCSHCLVAHEHTLRTVGVDREAIFEALKAAAIVSGVAQALATIEALSPS
notes: Homotrimer in the crystal; also called recombinant AhpD

Assays:
Lpd (porcine) = molecular target: T1, Lpd (porcine) (Sus scrofa, UniProt P09623); assay: Counter-test on porcine Lpd; format: biochemical; design: key: “NE” means no effect; conditions: at 10 μM
T1 sequence (P09623 36-509): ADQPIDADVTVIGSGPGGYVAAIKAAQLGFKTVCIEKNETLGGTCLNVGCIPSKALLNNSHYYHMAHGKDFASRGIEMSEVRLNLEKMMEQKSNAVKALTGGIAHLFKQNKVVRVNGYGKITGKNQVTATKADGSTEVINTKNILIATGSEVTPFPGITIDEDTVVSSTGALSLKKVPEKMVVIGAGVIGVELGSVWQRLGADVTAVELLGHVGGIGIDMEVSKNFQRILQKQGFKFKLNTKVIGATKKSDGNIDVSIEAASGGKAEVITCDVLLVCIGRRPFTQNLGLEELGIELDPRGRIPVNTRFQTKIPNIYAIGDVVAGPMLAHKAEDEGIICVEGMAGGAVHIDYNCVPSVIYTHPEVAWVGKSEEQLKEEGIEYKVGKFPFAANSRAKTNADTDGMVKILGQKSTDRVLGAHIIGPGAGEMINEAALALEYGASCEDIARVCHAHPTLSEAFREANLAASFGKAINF

αKG-DH (porcine) = assay: Counter-test on porcine αKG-DH; format: biochemical; design: key to αKG-DH (porcine): “NE” means no effect; conditions: at 50 μM
TR (bovine) = assay: Counter-test on bovine TR; format: biochemical; design: key: “NE” means no effect; conditions: at 10 μM
SucB = molecular target: T2, SucB (Mycobacterium tuberculosis, UniProt P9WIS7); assay: Inhibition constant for the enzyme identified as target: SucB; format: biochemical
T2 construct: Lpd and SucB ORFs were amplified by PCR from M. tuberculosis H37Rv genomic DNA; made in house; host or cells: E. coli BL21(DE3), pET11c, culture supplemented with lipoic acid
T2 sequence (P9WIS7 1-553): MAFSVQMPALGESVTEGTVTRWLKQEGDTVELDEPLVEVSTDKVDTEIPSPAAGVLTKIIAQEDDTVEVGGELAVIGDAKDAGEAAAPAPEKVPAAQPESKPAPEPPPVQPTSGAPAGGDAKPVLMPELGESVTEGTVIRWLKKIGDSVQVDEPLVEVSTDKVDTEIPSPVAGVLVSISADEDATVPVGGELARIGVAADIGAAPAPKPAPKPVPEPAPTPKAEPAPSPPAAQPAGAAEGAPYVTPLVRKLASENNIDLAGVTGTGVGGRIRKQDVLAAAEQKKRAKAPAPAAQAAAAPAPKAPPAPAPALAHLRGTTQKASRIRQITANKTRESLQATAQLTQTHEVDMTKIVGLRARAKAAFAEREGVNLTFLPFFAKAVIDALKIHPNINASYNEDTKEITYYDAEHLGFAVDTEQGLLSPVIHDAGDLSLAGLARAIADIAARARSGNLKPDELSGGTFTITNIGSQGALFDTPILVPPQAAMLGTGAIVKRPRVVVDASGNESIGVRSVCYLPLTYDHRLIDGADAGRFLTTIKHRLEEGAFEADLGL
Description: Table 2 lists the molecular structures of eleven chemical compounds that were identified from the above screen. The first three compounds in Table 2 were further identified as to which of the 3 enzymes (AhpD, Lpd, SucB) each inhibited.

[1] = molecular target: the molecule itself; assay: X-ray crystal structure at 2.0 Å, homotrimer

Molecule | Lpd (porcine) (Lpd (porcine)) | αKG-DH (porcine) inhibition (αKG-DH (porcine)) | TR (bovine) (TR (bovine)) | Macs Viabil. (50 μM) (mouse macrophages) | Ki (SucB) [µM] | αKG-DH (porcine) (αKG-DH (porcine)) | binding result [1]
Cc1cc(C)cc(/N=C2/NC(=O)/C(=C\c3cc(Br)c(O)c([N+](=O)O)c3)S2)c1 [2368-0687] | NE at 10 µM | 5-10% inhi- bition at 50 μM | NE at 10 μM | 70% ±13% *clu- sters | – | – | –
O=C(O)CCN1C(=O)/C(=C\c2ccc(-c3cccc(C(F)(F)F)c3)o2)SC1=S [2556-0286] | NE at 10 μM | – | NE at 10 μM | 80% ±1% | 3 | NE at 50 μM | –
O=C(O)CN1C(=O)/C(=C\c2ccc(-c3cccc(Cl)c3Cl)o2)SC1=S [3229-2113] | NE at 10 μM | – | NE at 10 μM | 91% ±5% | 6 | NE at 50 μM | –
B1 | – | – | – | – | – | – | binds
